Usually Kd stands for the concentration at which binding is half-saturated.

This assay has as its target T1, Se-DSP1 (Spodoptera exigua, UniProt A0A5P9L9K9).
T1 construct: full-length ORF, 505 residues; pET vector, bacterial expression, 6xHis and V5 tags, Ni-NTA then Sephadex G-100
T1 sequence (A0A5P9L9K9 1-505): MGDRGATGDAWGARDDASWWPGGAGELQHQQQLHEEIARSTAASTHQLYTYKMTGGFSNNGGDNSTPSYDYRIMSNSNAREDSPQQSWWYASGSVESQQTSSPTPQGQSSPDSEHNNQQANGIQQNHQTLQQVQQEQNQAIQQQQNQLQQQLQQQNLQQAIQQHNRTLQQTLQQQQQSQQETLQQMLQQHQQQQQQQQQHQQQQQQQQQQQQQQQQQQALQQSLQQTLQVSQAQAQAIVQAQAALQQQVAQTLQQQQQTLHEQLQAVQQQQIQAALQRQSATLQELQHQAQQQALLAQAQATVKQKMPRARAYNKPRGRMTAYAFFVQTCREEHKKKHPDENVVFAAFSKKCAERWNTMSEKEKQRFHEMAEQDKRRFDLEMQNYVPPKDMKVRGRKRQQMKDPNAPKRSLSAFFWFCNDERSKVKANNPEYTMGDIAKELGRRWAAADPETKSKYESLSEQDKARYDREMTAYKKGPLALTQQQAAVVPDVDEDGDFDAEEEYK
As to the kind of experiment: thermal shift assay (Protein Thermal Shift dye, StepOne real-time PCR). Particulars: 0-20 μM SA; 500 ng protein; 25-99 °C at 2.96 °C/min; ligand binding equation fit of melting temperatures. On the technique in general: Real-time PCR tracks product formation cycle by cycle.

Take `O=C(O)c1ccccc1O` [SA, 2-hydroxybenzoic acid]: the Kd was determined as 1280 ± 50 nM.

Source of the values: PMC8521015, “Salicylic Acid, a Plant Hormone, Suppresses Phytophagous Insect Immune Response by Interrupting HMG-Like DSP1” (Frontiers in Physiology, 2021).
